Patent publication US3978035A, “13-Norleucine-14-desamido motilin, a method for preparing it and an agent containing it” (Max-Planck-Gesellschaft zur Forderung der Wissenschaften …, priority 1973, dated 1976)
Where a SMILES comes first, the peptide text is derived from it. [ ]: non-standard residue; d: D form. Nle = CCCC[C@H](N)C(=O)O

Experiment: biological activity in comparison with natural motilin
Details: after purification on ion exchangers; relative to naturally occurring motilin (method reference: J. C. Brown et al.)

Row | SMILES | biological activity in comparison with natural motilin
1 | CCCC[C@H](NC(=O)[C@H](CCCNC(=N)N)NC(=O)[C@H](CCC(N)=O)NC(=O)[C@H](CC(C)C)NC(=O)[C@H](CCC(=O)O)NC(=O)CNC(=O)[C@H](Cc1ccc(O)cc1)NC(=O)[C@@H](NC(=O)[C@H](Cc1ccccc1)NC(=O)[C@@H](NC(=O)[C@@H]1CCCN1C(=O)[C@@H](NC(=O)[C@@H](N)Cc1ccccc1)C(C)C)[C@@H](C)CC)[C@@H](C)O)C(=O)N[C@@H](CCC(=O)O)C(=O)N[C@@H](CCC(=O)O)C(=O)N[C@@H](CCCCN)C(=O)N[C@@H](CCC(=O)O)C(=O)N[C@@H](CCCNC(=N)N)C(=O)N[C@@H](CC(N)=O)C(=O)N[C@@H](CCCCN)C(=O)NCC(=O)N[C@@H](CCC(N)=O)C(=O)O [13-norleucine-14-desamido-motilin] (H-FVPIFTYGELQR[Nle]EEKERNKGQ-OH) | above 90%
2 | CCCC[C@H](NC(=O)[C@H](CCCNC(=N)N)NC(=O)[C@H](CCC(N)=O)NC(=O)[C@H](CC(C)C)NC(=O)[C@H](CCC(=O)O)NC(=O)CNC(=O)[C@H](Cc1ccc(O)cc1)NC(=O)[C@@H](NC(=O)[C@H](Cc1ccccc1)NC(=O)[C@@H](NC(=O)[C@@H]1CCCN1C(=O)[C@@H](NC(=O)[C@@H](N)Cc1ccccc1)C(C)C)[C@@H](C)CC)[C@@H](C)O)C(=O)N[C@@H](CCC(=O)O)C(=O)N[C@@H](CCC(=O)O)C(=O)N[C@@H](CCCCN)C(=O)N[C@@H](CCC(=O)O)C(=O)N[C@@H](CCCNC(=N)N)C(=O)N[C@@H](CC(N)=O)C(=O)N[C@@H](CCCCN)C(=O)NCC(=O)N[C@@H](CCC(N)=O)C(=O)O [C1 -fraction] (H-FVPIFTYGELQR[Nle]EEKERNKGQ-OH) | over 90%
